Assay results reported in patent US7947696B2, “2-amino-4-phenylquinazoline derivatives and the use thereof as HSP90 modulators” (Merck Patent GmbH, priority 2005, dated 2011).
Counter-ions that a name gives are not always drawn.

Molecular target: T1, Recombinant human HSP90α (Homo sapiens, UniProt P07900)
T1 construct: host or cells: E. coli
Assay: radioligand filter binding test, competition with [3H]17AAG for HSP90
Conditions: [3H]17AAG 0.08 μM, HSP90 1.5 μg/assay, 22° C., 30 min, pH 7.0
From the text: The binding of geldanamycin or 17-allylamino-17-demethoxygeldanamycin (17AAG) to HSP90 and competitive inhibition thereof can be utilised in order to determine the inhibitory activity of the compounds according to the invention (Carreras et al. 2003, Chiosis et al. 2002).
In the specific case, a radioligand filter binding test is used. The radioligand used here is tritium-labelled 17-allylaminogeldanamycin, [3H]17AAG. This filter binding test allows a targeted search for inhibitors which interfere with the ATP binding site.
Recombinant human HSP90α(E. coli expressed, 95% purity); [3H]17AAG (17-allylaminogeldanamycin, [allylamino-2,3-^3H. Specific activity: 1.11×10^12 Bq/mmol (Moravek, MT-1717); HEPES filter buffer (50 mM HEPES, pH 7.0, 5 mM MgCl2, BSA 0.01%) Multiscreen FB (1 μm) filter plate (Millipore, MAFBNOB 50).
The 96-well microtitre filter plates are firstly irrigated and coated with 0.1% of polyethylenimine.
The test is carried out under the following conditions: • Reaction temperature 22° C. • Reaction time: 30 min., shaking at 800 rpm • Test volume: 50 μl • Final concentrations: • 50 mM HEPES HCl, pH 7.0, 5 mM MgCl2, 0.01% (w/v) BSA • HSP90:1.5 μg/assay • [3H]17AAG: 0.08 μM.
At the end of the reaction, the supernatant in the filter plate is removed by suction with the aid of a vacuum manifold (Multiscreen Separation System, Millipore), and the filter is washed twice.
The filter plates are then measured in a beta counter (Microbeta, Wallac) with scintillator (Microscint 20, Packard).
“% of control” is determined from the “counts per minutes” values and the IC-50 value of a compound is calculated therefrom.

Row | IC50 [nM] | Compound
1 | 950 | COC(=O)c1cccc(COc2cc(-c3nc(N)nc4ccc(Cl)cc34)ccc2OC)c1 [Compound A108, 2-amino-6-chloro-4-[3-(3-methoxycarbonylbenzyloxy)-4-methoxyphenyl]quinazoline]
2 | 800 | COC(=O)c1ccc(COc2cc(-c3nc(N)nc4ccc(Cl)cc34)ccc2OC)cc1 [Compound A109, 2-amino-6-chloro-4-[3-(4-methoxycarbonylbenzyloxy)-4-methoxyphenyl]quinazoline]
3 | 470 | COc1ccc(-c2nc(N)nc3ccc(Cl)cc23)cc1OCc1cccc(C(=O)O)c1 [Compound A112, 2-amino-6-chloro-4-[3-(3-carboxybenzyloxy)-4-methoxyphenyl]quinazoline sodium salt]
4 | 370 | COc1ccc(-c2nc(N)nc3ccc(Cl)cc23)cc1OCc1ccc(C(=O)O)cc1 [Compound A113, 2-amino-6-chloro-4-[3-(4-carboxybenzyloxy)-4-methoxyphenyl]quinazoline sodium salt]

Second part, the compound before the results:

Row | Compound | IC50 [nM]
5 | COc1ccc(-c2nc(N)nc3ccc(Cl)cc23)cc1OCCCC(=O)O [Compound A111, 2-amino-6-chloro-4-[3-(3-carboxypropoxy)-4-methoxyphenyl]quinazoline sodium salt] | 580
6 | COc1ccc(-c2nc(N)nc3ccc(Cl)cc23)cc1OC [Compound A134, 2-amino-6-chloro-4-(3,4-dimethoxyphenyl)quinazoline] | 550
7 | COc1ccc(-c2nc(N)nc3ccc(Cl)cc23)cc1OCc1ccc(-c2nnn[nH]2)cc1 [Compound A138, 2-amino-6-chloro-4-{3-[4-(1H-tetrazol-5-yl)benzyloxy]-4-methoxyphenyl}quinazoline] | 540
